What was measured:
[1] = Content uniformity by dose through use testing of salmeterol xinafoate HFA 134a inhalers; assay type: physicochemical; conditions: 10% w/w surfactant
Experimental: (§1) Salmeterol xinafoate formulations in HFA 134a, of strength 25 μg per actuation, and 10% w/w (relative to drug) of the relevant surfactant compound of formula (I) were prepared using salmeterol xinafoate (5.8 mg), HFA 134a (12 g) and the relevant compound (0.58 mg). The control was prepared without the addition of a surfactant.
The content uniformity of the formulation, the preparation of which is described above, was assessed by dose through use testing. Testing was performed on 10 cans/inhalers at “beginning of use” (BoU) and “end of use” (EoU). After each inhaler had been primed (4 shots fired to waste), actuations 1 and 2 (BoU) were collected. The next 116 actuations of each inhaler were then fired to waste using an automated method and actuations 119 and 120 (EoU) collected.
The assesment of content uniformity was performed intially (following sample preparation). The results are quoted in Table 2 as the mean of the two BoU actuations for 10 inhalers (1+2 for 10 inhalers) and the mean of two EoU actuations for the said 10 inhalers (119+120 for the same 10 inhalers) together with the percentage relative standard deviation (% RSD).

[2] = Particle size by image analysis (Galai CIS-100) of salmeterol xinafoate HFA 134a suspension; assay type: physicochemical; conditions: salmeterol xinafoate 25 μg per actuation in HFA 134a, 10% w/w (relative to drug) surfactant; mean of 4 determinations
Experimental: as §1
In this measurement, particle size is represented as the equivalent diameter of a circle of equal area to the object. The mean is the average of 4 determinations. The particle size measurement was obtained by transferring the suspensions to a presurised cell, and video-imaging the sample under shear via a microscope objective.
The equivalent diameter is defined as the diameter of a circle of equal area to the object.
The mean equivalent diameter can be weighted by number, length or volume. e.g. For three particles with equivalent diameters of x, y and z: […]

In the case of `O=C(O)COCCCCCCC(F)(F)C(F)(F)F` [Example 5, [(7,7,8,8,8-Pentafluorooctyl)oxy]acetic acid], the “rise in dose from beginning to end of use” value ([1]; EoU minus BoU dose, 10 inhalers, salmeterol xinafoate in HFA 134a) is reported as 1.8 µg, the BoU dose ([1]; beginning of use, mean of actuations 1+2 for 10 inhalers, salmeterol xinafoate 25 μg per actuation in HFA 134a, initial) is reported as 19.0 µg and the EoU dose ([1]; end of use, mean of actuations 119+120 for 10 inhalers, salmeterol xinafoate 25 μg per actuation in HFA 134a, initial) is reported as 21.8 µg. The “Mean Length weighted diameter” value [2] was 13.8 μm.

Reference: patent US7195752B2, “Surfactant compounds and uses thereof” (Glaxo Group Limited, priority 2001, dated 2007)
